Test results published in US20210253518A1, “KINASE INHIBITOR” (NISSAN CHEMICAL CORPORATION, priority 2018, published 2021).

What was measured:
[1] = test system: TAZ protein; assay: Imaging analysis of nuclear translocation in SKOV3 cells; format: cell-based, human; conditions: 10 μM, 4 hr, ratio of fluorescence intensity nucleus/cytoplasm, no addition 6.98
Experimental: (§1) Compounds k-1:B-1, k-1:H-1, and k-1:J-1 were evaluated for nuclear translocation of YAP protein and TAZ protein. For the nuclear translocation, imaging analysis was performed using the human ovarian cancer cell line SKOV3 (manufactured by DS Pharma Biomedical Co., Ltd) and OperettaCLS (manufactured by PerkinElmer) described below. The compounds were added such that the final concentration of the test concentration of k-1:B-1, k-1:H-1, and k-1:J-1 was 10 μM.
(§2) Human ovarian cancer cell line SKOV3 cultured according to the protocol recommended by DS Pharma Biomedical Co., Ltd. was seeded on a 96-well plate (manufactured by PerkinElmer, CellCarrier-Ultra) at 15,000 cells/90 μL/well on the cycloolefin bottom surface, and cultured in a CO2 incubator (37° C., 5% CO2) for 1 day. After culturing, 10 μL of k-1:B-1, k-1:H-1, and k-1:J-1 solutions having a concentration of 100 μM and dissolved in DMSO was added. The cells were further cultured in a CO2 incubator at 37° C. for 4 hr. The medium was exchanged with 4% para-formaldehyde, and the cells were fixed by allowing to stand at room temperature for 10 min. The fixed cells were subjected to immunostaining with AlexaFluor® 647-labeled YAP antibody (manufactured by Cell Signaling Technology), anti-mouse TAZ (D-8) antibody (manufactured by SantaCruz), AlexaFluor® 555-labeled anti-mouse IgG antibody (manufactured by Thermo Fisher Scientific), according to the recommended protocol produced by Cell Signaling Technology, and the cell nucleus was further stained with 10 μg/mL Hoechst33342 solution.
(§3) Nine fields of view were imaged per well using a 20× objective lens of Operatta CLS. The cell nucleus region and the cytoplasm region were identified from the obtained fluorescence images by using the analysis software Harmony (manufactured by PerkinElmer), and AlexaFluor® 647 fluorescence intensity per unit area and the AlexaFluor® 555 fluorescence intensity per unit area in each region were extracted. The nuclear translocation was evaluated by calculating the ratio of the fluorescence intensity of the cell nucleus region to the fluorescence intensity of the cytoplasmic region from the extracted values. The value becomes greater than 1 as the YAP protein and TAZ protein transfer into the cell nucleus, and less than 1 when localized in the cytoplasm.
(§4) The specific compound used in the present invention was evaluated for the nuclear translocation of YAP protein and TAZ protein. For the nuclear translocation, imaging analysis was performed using the human ovarian cancer cell line SKOV3 (DS Pharma Biomedical Co., Ltd) and OperettaCLS (PerkinElmer) described below. The specific compound was added such that the final concentration of the test concentration of the compound used in the present invention was 10 μM.
(§5) Human ovarian cancer cell line SKOV3 cultured according to the protocol recommended by DS Pharma Biomedical Co., Ltd. was seeded on a 96-well plate (PerkinElmer, CellCarrier-Ultra) at 15,000 cells/90 μL/well on the cycloolefin bottom surface, and cultured in a CO2 incubator (37° C., 5% CO2) for 1 day. After culturing, a solution of the specific compound used in the present invention dissolved in DMSO was added. The cells were further cultured in a CO2 incubator at 37° C. for 4 hr, the medium was exchanged with 4% para-formaldehyde, and the cells were fixed by allowing to stand at room temperature for 10 min. The fixed cells were subjected to immunostaining with AlexaFluor® 647-labeled YAP antibody (Cell Signaling Technology), anti-mouse TAZ (D-8) antibody (SantaCruz), AlexaFluor® 555-labeled anti-mouse IgG antibody (Thermo Fisher Scientific), according to the recommended protocol produced by Cell Signaling Technology, and the cell nucleus was further stained with 10 μg/mL Hoechst33342 solution.
(§6) Nine fields of view were imaged per well using a 20× objective lens of Operatta CLS. […]

[2] = test system: YAP protein; assay: as above; format: cell-based, human; conditions: 10 μM, 4 hr, ratio of fluorescence intensity nucleus/cytoplasm, no addition 6.15
Experimental: as §1, §2, §3, §4, §5, §6

[3] = test system: mouse partial liver resection model; assay: Liver weight increase in mouse partial liver resection model; format: in vivo; conditions: 10 mg/kg intraperitoneally 4 times every 24 hr, about 30% of the liver removed, FIG. 2
Experimental: A partial liver resection model in which the mouse liver was partially resected was prepared as described below, and the liver weight increasing effect of the specific compound was evaluated by comparing the liver weight immediately after the resection with the liver weight 3 days after the resection.
A 0.5 w/v % methylcellulose aqueous solution (0.5% MC, manufactured by FUJIFILM Wako Pure Chemical Corporation) and k-1:B-1, k-1:J-1 were evaluated. k-1:B-1 and k-1:J-1 were suspended in 0.5% MC, and prepared at a final concentration of 1 mg/mL.
Mice, BALB/cAnNCrlCrlj, 5-week-old, male, were purchased from Charles River Laboratories, Japan. In terms of the 0.5% MC administration control group, 0.5% MC 10 mL/kg was administered intraperitoneally once, and 24 hr later, the entire liver was isolated and the liver weight was measured (n=5). […] After that, the abdomen was closed, and 24 hr after the final administration, the entire liver was removed and the liver weight was measured (n=4). In terms of the k-1:B-1 or k-1:J-1 administration-control group, k-1:B-1 or k-1:J-1 10 mg/kg, 10 mL/kg, was intraperitoneally administered once, and 24 hr later, the entire liver was isolated and the liver weight was measured (n=5). […] After that, the abdomen was closed, and 24 hr after the final administration, the entire liver was removed and the liver weight was measured (n=5).

Row | SMILES | TAZ nuclear translocation rate [1] | YAP nuclear translocation rate [2] | liver weight ratio after partial liver resection [3]
1 | CCC(=NNC(=O)CNc1ccccc1)c1ccc(O)c(C)c1O [k-1:H-1] | 8.84 | 7.60 | –
2 | CC/C(=N\NC(=O)C(C)Nc1ccccc1)c1ccc(O)c(C)c1O (centres unmarked) [k-1:B-1] | 7.93 | 6.98 | promoting recovery of the liver weight after excision
3 | CC/C(=N\NC(=O)NCc1cccc(O)c1)c1ccc(O)c(C)c1O [k-1:J-1] | 9.14 | 7.92 | promoting recovery of the liver weight after excision
